Measured values published in patent US20130199313A1, “METHOD FOR EVALUATING THE SOLUBILITY OF A CRYSTALLINE SUBSTANCE IN A POLYMER” (Abbott GmbH & Co, KGW, priority 2010, published 2013).

Columns and labels:
[1] = Flory-Huggins fit of solute activity from annealing-method solubility data (interaction parameter χ); format: physicochemical; settings: polymer PVP K-12, Flory-Huggins fit
Description: The solute activity a1 of the drug in the saturated solution was calculated from the solubility of the crystalline drug in the polymer as follows:
In a1=(ΔHm/R)(1/Tm−1/T) (1)
where Tm is the melting point of the pure drug, ΔHm is its molar heat of melting, and T is the temperature at which the drug's solubility is measured (or its depressed melting point). […] According to the Flory-Huggins theory, the solute activity is given by
where v1 and v2 are the solute (drug) and solvent (polymer) volume fractions (v1+v2=1), x is the molar volume ratio of the polymer and the drug, and χ□ is the solute-solvent interaction parameter.
To the extent the reasonable fitting in FIG. 4 justifies the use of the Flory-Huggins model, the interaction parameter χ (equation 1) could be obtained.

[2] = Annealing/DSC method for solubility of a crystalline substance in a polymer; format: physicochemical; settings: 40 and 50% w/w IMC in PVP/VA, annealing vs scanning method
Description: Solute-polymer mixtures of desired concentrations were prepared by weighing the components. […] In a typical procedure, 0.5-1 g solute/polymer powder was milled at 10 Hz. Each cycle of milling was 2 min, followed by a 2 min cool-down. The cycle was repeated to achieve a desired milling time (2-60 min).
For annealing, 5-10 mg of sample was packed into a Tzero hermetic aluminum pan with three pin holes made in the lid to allow the escape of moisture and held isothermally at a desired temperature for as long as 600 minutes. Shorter annealing time was used if the system could apparently achieve equilibrium sooner.
Differential scanning calorimetry (DSC) was conducted using a TA Instruments DSC Q2000 at 10° C./min to determine whether residual crystals remain after annealing, i.e. whether a dissolution endotherm can be identified.

[3] = polymer PVP K-12; cited from earlier work

In the case of COc1ccc2c(c1)c(CC(=O)O)c(C)n2C(=O)c1ccc(Cl)cc1 [IMC, indomethacin], the “solute-solvent interaction parameter χ as determined with the method of the present invention” value [1] is given as −8.2 ± 0.6, the “solution temperature below that obtained with the scanning method” value [2] is given as “approximately 7 °C” and the “solute-solvent interaction parameter χ as determined by Marsac et al.” value [3] is given as −0.82.
